The target of assay [1] is T1, Corticotropin-releasing factor receptor 2/Corticotropin-releasing factor-binding protein (Homo sapiens, UniProt P24387+Q13324).
T1 sequence (Q13324 whole entry): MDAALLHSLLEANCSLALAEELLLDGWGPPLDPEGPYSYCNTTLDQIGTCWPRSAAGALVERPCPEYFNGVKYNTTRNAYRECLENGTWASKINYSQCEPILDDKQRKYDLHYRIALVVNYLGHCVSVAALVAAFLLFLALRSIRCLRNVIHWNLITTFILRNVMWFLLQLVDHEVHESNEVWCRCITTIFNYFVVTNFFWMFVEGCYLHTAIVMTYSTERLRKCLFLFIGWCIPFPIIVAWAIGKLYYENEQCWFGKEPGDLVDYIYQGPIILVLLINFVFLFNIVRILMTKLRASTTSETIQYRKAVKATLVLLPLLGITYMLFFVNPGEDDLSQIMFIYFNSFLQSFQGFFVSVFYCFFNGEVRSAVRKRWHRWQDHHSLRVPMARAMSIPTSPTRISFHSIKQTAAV
T1 sequence (P24387 whole entry): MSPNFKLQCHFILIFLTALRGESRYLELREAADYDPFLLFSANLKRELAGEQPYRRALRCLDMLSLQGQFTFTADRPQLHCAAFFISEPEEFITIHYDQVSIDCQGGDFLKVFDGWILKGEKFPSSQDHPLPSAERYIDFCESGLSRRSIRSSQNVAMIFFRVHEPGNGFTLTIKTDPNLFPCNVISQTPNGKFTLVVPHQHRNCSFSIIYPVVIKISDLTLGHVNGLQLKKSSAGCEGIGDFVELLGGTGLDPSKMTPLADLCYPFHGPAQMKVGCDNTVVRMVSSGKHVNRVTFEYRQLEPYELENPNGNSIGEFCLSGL
Put plainly: Dose Response confirmation of uHTS hits for small molecule antagonists of the CRF-binding protein and CRF-R2 receptor complex. The format is functional. Particulars: read-out: IC50_Mean.

In assay [2] the target is T1, Corticotropin-releasing factor receptor 2/Corticotropin-releasing factor-binding protein. Put plainly: activators of CRF receptor 2 with binding protein – uHTS hits, confirmation (AID 602473). Conditions: read-out: EC50_Mean. The format is functional.
Assay [3] is described as follows: HIV-1 AD8 envelope cell-cell fusion blockers – cherry-pick, dose response (AID 652062).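 Note: luciferase signal from cell-cell fusion driven by HIV-1 clade B AD8 Env; potency is for inhibitors of fusion seen as a drop in luminescence.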 The class given is functional, cell-based.
Assay [4] in a line: blockers of HIV-1 envelope-mediated cell-cell fusion – cherry-pick, dose response (AID 652057). The class given is functional, cell-based.
Assay [5] has as its target T2, Polyadenylate-binding protein 1 (Homo sapiens, UniProt P11940). Put plainly: MLLE domain peptide-binding blockers, IC50 – biochemical, fluorescence polarization, FITC-PAM2 peptide, dose response (AID 602259). The format is functional. Conditions: read-out: IC50_Mean.
The target of assay [6] is T2, Polyadenylate-binding protein 1. Briefly: MLLE binding blockers, Cy5 peptide tracer – biochemical, fluorescence polarization, Cy5-PAM2 peptide, secondary, miRNA deadenylation inhibitor project, dose response (AID 602260). The class given is functional. Conditions: read-out: IC50_Mean.
The target in another assay is Nonstructural protein 1 (Influenza A virus, UniProt Q194T2). The class given is functional, Influenza A virus (A/California/07/2009(H1N1)).
Nonstructural protein 1, sequence (Q194T2 whole entry): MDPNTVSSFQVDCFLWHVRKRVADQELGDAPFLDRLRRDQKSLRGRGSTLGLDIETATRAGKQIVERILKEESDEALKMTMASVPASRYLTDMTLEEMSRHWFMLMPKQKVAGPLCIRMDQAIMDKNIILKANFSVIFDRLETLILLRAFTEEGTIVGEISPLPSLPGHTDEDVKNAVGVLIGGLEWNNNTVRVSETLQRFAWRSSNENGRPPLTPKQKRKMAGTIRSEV
The test system of a further assay is H9c2. Put plainly: cells. The class given is functional, cell-based. Particulars: Rattus norvegicus, H9c2, Myocardium.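 Note: confirmatory concentration-response retest of ultra-high-throughput screening hits for modulation of myocardial damage; cell death induced by hydrogen peroxide oxidative stress; compound pretreatment for 60 min then peroxide exposure for 2 h; potency is for protecting the cells against peroxide damage rather than for killing them.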
The nature of assay [7]: Trypanosoma cruzi growth suppression in host cells – NIH3T3 host cells, beta-gal luminescence, confirmation (AID 2044).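 Note: intracellular parasites grown in NIH/3T3 mouse fibroblasts as host cells; luminescent beta-galactosidase reporter signal from transgenic T. cruzi replicating inside host cells; inhibitors lower the luminescence signal.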 The class given is functional, cell-based.
Assay [8] in a line: NIH3T3 cell viability loss – ATP luminescence, mouse fibroblasts, counter-screen, dose response (AID 2010).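 Note: cells exposed to compound for about 90 hours before reading.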 The format is functional, cell-based.
Assay [9] is described as follows: viability of uninfected HEp-2 cells – cell-based, HTS, cytotoxicity control for RSV inhibitor project, dose response (AID 2410). The format is functional. Particulars: human respiratory syncytial virus.
The nature of assay [10]: Luminescence Cell-Based Dose Retest to Confirm Inhibitors of Cancer Stem Cells. [Related pubchem assays (depositor defined):AID2717, AID2721]. The format is functional. Particulars: Homo sapiens.
In the next assay the target is T3, Streptokinase A (Streptococcus pyogenes serotype M1, UniProt P10520).
T3 sequence (P10520 whole entry): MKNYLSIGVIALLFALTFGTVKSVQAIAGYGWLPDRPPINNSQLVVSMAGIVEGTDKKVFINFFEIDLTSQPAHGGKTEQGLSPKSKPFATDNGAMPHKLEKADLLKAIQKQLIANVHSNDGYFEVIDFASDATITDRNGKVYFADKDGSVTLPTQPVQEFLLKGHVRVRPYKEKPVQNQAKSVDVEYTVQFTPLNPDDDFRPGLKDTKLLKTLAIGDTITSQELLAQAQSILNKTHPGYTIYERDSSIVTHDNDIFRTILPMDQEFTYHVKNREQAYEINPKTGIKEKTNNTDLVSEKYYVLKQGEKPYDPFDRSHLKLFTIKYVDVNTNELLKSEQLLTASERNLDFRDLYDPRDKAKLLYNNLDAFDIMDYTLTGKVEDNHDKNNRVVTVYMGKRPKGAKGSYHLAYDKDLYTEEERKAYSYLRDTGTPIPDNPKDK
Briefly: viability-normalized secreted streptokinase activity reduction – plasminogen activation absorbance, OD405, dose response (AID 1914).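 Note: secreted streptokinase activity via plasminogen activation per viability signal from cell pellet.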 The format is functional, Streptococcus pyogenes M1 GAS.

The test system of assay [11] is Streptococcus sp. 'group A'. Put plainly: Streptococcus pyogenes SK(-)GAS viability under kanamycin – luminescence, BacTiterGlo, confirmation, counter-screen for streptokinase expression inhibitor project, dose response (AID 1900). The class given is functional, organism-based.
A further assay deals with Streptococcus. Briefly: GAS UMAA2166 growth inhibition – luminescence, BacTiterGlo, counter-screen for streptokinase expression inhibitor project, dose response (AID 1915).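 Note: potency for reduction of bacterial viability or growth.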 The class given is functional, organism-based.
Assay [12] can be described thus: Luminescence Cell-Based Dose Response HTS to Identify Inhibitors of 5'UTR Stem-Loop Driven Prion Protein mRNA Translation in H4 Neuroglioblastoma Cells. [Related pubchem assays: 1827 (Project Summary), 1813 (Primary HTS)]. The class given is functional.
Assay [13] in a line: luciferase reporter signal suppression in cells – H4 neuroglioma cells, luminescence, dose response (AID 1990). The class given is functional, cell-based.
Assay [14] in a line: P. falciparum Dd2 growth inhibitors, dose response, SYBR Green, cherry-picked samples (AID 1159567). The format is functional, cell-based.

The source made the active and inactive calls. A value given as a limit tells only on which side of the number the result lay.

T2 sequence (P11940 whole entry, the tested form may be a part): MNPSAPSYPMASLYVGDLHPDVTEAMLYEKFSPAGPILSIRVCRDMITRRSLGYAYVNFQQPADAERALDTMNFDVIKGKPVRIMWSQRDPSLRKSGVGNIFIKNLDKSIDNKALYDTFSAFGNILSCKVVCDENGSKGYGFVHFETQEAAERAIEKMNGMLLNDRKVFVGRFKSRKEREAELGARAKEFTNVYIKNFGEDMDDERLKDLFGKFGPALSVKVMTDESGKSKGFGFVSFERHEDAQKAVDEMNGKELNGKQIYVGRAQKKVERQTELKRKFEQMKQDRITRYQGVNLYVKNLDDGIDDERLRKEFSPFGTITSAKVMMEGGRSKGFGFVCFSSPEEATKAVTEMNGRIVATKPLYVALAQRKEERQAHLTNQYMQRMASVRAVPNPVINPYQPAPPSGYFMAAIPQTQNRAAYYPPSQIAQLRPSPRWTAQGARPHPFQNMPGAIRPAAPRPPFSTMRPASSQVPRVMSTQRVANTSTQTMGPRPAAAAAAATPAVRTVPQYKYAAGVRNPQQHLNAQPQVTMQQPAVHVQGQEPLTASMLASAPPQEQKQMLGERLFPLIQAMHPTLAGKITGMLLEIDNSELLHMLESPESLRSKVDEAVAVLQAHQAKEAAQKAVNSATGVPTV

For `CC(=O)Nc1ccc(S(=O)(=O)N2CCN(c3nnnn3-c3ccccc3)CC2)cc1`, the IC50 in [1] is > 47.1 µM (inactive). For the same compound, in [2], the EC50 was > 53 µM (inactive).

Regarding `O=C1CC(c2ccccc2)CN1S(=O)(=O)c1ccccc1` (centres undefined), the IC50 in assay [1] is > 47.1 µM (inactive). Moreover, in [2], the EC50 is > 53 µM (inactive).

With `Cc1c(N2C(=O)C3C4C=CC(C5CC45)C3C2=O)c(=O)n(-c2ccccc2)n1C` (centres undefined), the IC50 in assay [1] was > 47.1 µM (inactive). Moreover, the EC50 in [2] is > 53 µM (inactive).

With `O=C(c1ccc(Cl)s1)N1CCN(c2nc3ccccc3s2)CC1`, the AC50 in assay [3] is 11.9 µM (active); in [4], 55.7 µM (active).

As for `COC(=O)c1ccccc1NC(=S)NC(=O)c1ccc2c(c1)OCO2`, the IC50 in assay [5] and in [6] was > 66 µM (inactive) throughout.

`COc1cc(OC)c2ccc(=O)oc2c1C(CCN1CCN(c2ccccc2)CC1)c1ccc(N(C)C)cc1` (centres undefined): on Nonstructural protein 1, the IC50 is 32.5 µM (active).

Regarding `N#CCc1ccc(NS(=O)(=O)c2cccs2)cc1`, the IC50 in assay [1] is > 47.1 µM (inactive). In addition, the EC50 in assay [2] was > 53 µM (inactive).

On to `Cc1ccc(CCNC(=O)C2CCCN(S(=O)(=O)N3CC(C)CC(C)C3)C2)cc1` (centres undefined), for which the IC50 in assay [1] is > 47.1 µM (inactive). In addition, the EC50 in [2] was > 53 µM (inactive).

Take `Cc1ccc(CN(C)C(=O)CCc2c[nH]c3ccccc23)o1`: in assay [1], the IC50 was > 47.1 µM (inactive). In addition, the EC50 in [2] was > 53 µM (inactive).

Consider `CCOC(=O)N1CCN(C2=C(NS(=O)(=O)c3ccc(C)cc3)C(=O)c3ccccc3C2=O)CC1`, for which the IC50 on Nonstructural protein 1 is 21.5 µM (active).

For the compound `CCCN(CC(=O)Nc1ccc(F)c(F)c1F)C(=O)CCc1nc(O)c2ccccc2n1`, in the assay with H9c2, the IC50 was 9.51 µM (active).

Regarding `CC1CCN(c2ccccc2NC(=S)NC(=O)c2ccco2)CC1`, the IC50 in assay [5] and in assay [6] was > 66 µM (inactive) throughout.

Consider `COc1ccc(NC(=O)c2cc3c(=O)n(C)c4ccccc4c3n2C)cc1OC`, for which the IC50 in the assay with H9c2 was > 79 µM (inactive).

On to `O=C(CSc1nnc(-c2cccnc2)n1Cc1ccco1)c1ccccc1`, for which, in the assay with H9c2, the IC50 is 32.4 µM (inactive).

For `COC(=O)c1sc(=S)n(-c2cc(F)ccc2F)c1N`, the IC50 in assay [5] and in assay [6] was > 66 µM (inactive) each time.

`Cc1ccc(-n2cnn(-c3ccc([N+](=O)[O-])cc3[N+](=O)[O-])c2=O)cc1`: the IC50 on Nonstructural protein 1 is > 100 µM (active). Further, the values for the EC50 in assay [7] and in [8] were 1.54 µM (active) and > 60 µM (not active), respectively.

`Oc1nc2cccc(F)c2n2cccc12`: the IC50 with H9c2 is > 79 µM (inactive). In addition, the CC50 in [9] was 30 µM (active).

Consider `O=C(c1ccc2[nH]c3c(c2c1)CCCC3)N1CCN(c2ccc(F)cc2)CC1`, for which the IC50 at Nonstructural protein 1 is > 100 µM (active).

As for `COc1ccc(C(=O)COC(=O)C(CCCCN2C(=O)C3C4C=CC(C4)C3C2=O)N2C(=O)C3C4C=CC(C4)C3C2=O)cc1` (centres undefined), the IC50 in the assay with H9c2 was > 79 µM (inactive).

Take `CN1C(=O)/C(=C/c2cc(N=Nc3ccccc3)ccc2O)SC1=S`: on Nonstructural protein 1, the IC50 is 14.5 µM (active). For the same compound, the AC50 in assay [10] is 644 nM (active).

With `CCCCCc1ccc(C(=O)CCCC)c(S)n1`, the IC50 in assay [5] and in [6] was > 66 µM (inactive) each time.

Consider `COc1ccc(C)cc1S(=O)(=O)N1CCN(S(=O)(=O)c2cc(C)ccc2OC)CC1`, for which the IC50 in assay [1] is > 47.1 µM (inactive). In addition, the EC50 in assay [2] is > 53 µM (inactive).

On to `COC(=O)C1=C(C)N(C)C(C)=C(C(=O)OC)C1c1ccc(F)c(Br)c1`, for which the IC50 in assay [1] was > 47.1 µM (inactive). Besides, the EC50 in assay [2] was > 53 µM (inactive).

Take `CCCCn1nc(NC(=O)c2cccs2)c2cc3ccccc3nc21`: in the assay with H9c2, the IC50 was > 79 µM (inactive). Moreover, in [9], the 50% cytotoxic concentration (CC50) was 25.5 µM (active).

On to `O=C(CSc1ccc(-c2ccccn2)nn1)NCc1ccc(Cl)cc1`, for which, at Nonstructural protein 1, the IC50 is 41.9 µM (active).

In the case of `O=C(Nc1nnc(C2CC2)s1)c1cc(-c2ccccc2)nn1-c1ccccc1`, the EC50 at Streptokinase A is 8.32 µM (active); in [11], 10.1 µM (active); in the assay with Streptococcus, 20.8 µM (active). Further, in the assay with H9c2, the IC50 was 12.3 µM (active). Moreover, the CC50 in assay [9] is 13.1 µM (active).

Turning to `CCn1cc(C(=O)N2CCN(c3ccc([N+](=O)[O-])cc3)CC2)c(=O)c2ccc(C)nc21`, the values for the EC50 in [12] and in [13] were > 120 µM (not active) and 21.6 µM (active), respectively.

Consider `COc1ccc(N2CCN(C(=O)CCC(=O)N3CCOc4ccc(Cl)cc43)CC2)cc1`, for which the IC50 on Nonstructural protein 1 was > 100 µM (active).

In the case of `O=C1CCCC(=O)C1=NNc1ccc2ncsc2c1`, the IC50 in assay [5] and in [6] was > 66 µM (inactive) each time.

Turning to `CC(C)Oc1ccc(C(=O)NC2(C(F)(F)F)N=C3SCCN3C2=O)cc1` (centres undefined), the IC50 in [5] and in assay [6] was > 66 µM (inactive) in each case.

With `CC1CCCC(C)N1C(=O)COC(=O)COc1ccc(C#N)cc1` (centres undefined), the IC50 in assay [1] was > 47.1 µM (inactive). Besides, the EC50 in assay [2] was > 53 µM (inactive).

As for `C/C(=N\NC(=O)c1ccccc1-n1cccc1)c1ccccn1`, the IC50 in the assay on H9c2 is 38.8 µM (inactive).

Take `COC(=O)/C(=C(O)\C=C\c1ccccc1[N+](=O)[O-])c1nc2ccccc2[nH]1`: the IC50 in the assay with H9c2 is > 79 µM (inactive).

Take `C[C@H](CO)N1C[C@H](C)[C@H](CN(C)S(=O)(=O)c2cccs2)Oc2ccc(NC(=O)Cc3cn(C)c4ccccc34)cc2CC1=O`: the values for the AC50 in assay [3] and in assay [4] were 12.5 µM (active) and 0.883 µM (active), respectively.

In the case of `C[C@@H]1CN([C@H](C)CO)C(=O)c2cccc(NC(=O)Nc3cccc4ccccc34)c2O[C@H]1CN(C)C(=O)NC1CCCCC1`, in assay [14], the AC50 is 4.98 µM (active).

Consider `C[C@@H]1CN([C@@H](C)CO)C(=O)Cc2cc(NC(=O)NC3CCCCC3)ccc2O[C@H]1CN(C)C(=O)Nc1cccc2ccccc12`, for which the concentration at half-maximal activity (AC50) in [14] is 5.11 µM (active).

Turning to `CN(C)c1ccc2c(c1)[C@@H]1C[C@@H](CC(=O)NCc3cc(F)ccc3F)O[C@@H](CO)[C@@H]1O2`, the AC50 in assay [14] was 13.3 µM (active).

The values are drawn from ChEMBL document CHEMBL1201862, “PubChem BioAssay data set” (2004).
